Consider 13 compounds from ChEMBL document CHEMBL3632520, “Correlation of antioxidant activities with theoretical studies for new hydrazone compounds bearing a 3,4,5-trimethoxy benzyl moiety” (Eur J Med Chem, 2015).

Values after ≈ are worked out from the molar mass of the structure shown.

What all share (assay type): physicochemical
Data set [1] is described as follows: Antioxidant activity assessed as ferric ion reducing activity using fe3+-TPTZ assessed as fe2+-TPTZ formation after 30 mins by FRAP assay. To be noted: 0.5 h.
Data set [2] can be described thus: Antioxidant activity assessed as DPPH radical scavenging activity measured as discoloration incubated for 30 mins in dark relative to control. The note with it: 0.5 h.
Data set [3] is described as follows: Antioxidant activity assessed as DPPH radical scavenging activity measured as discoloration incubated for 30 mins in dark.

On to `CCOC(=O)c1ccc(OCc2cc(OC)c(OC)c(OC)c2)cc1`, for which the Activity in data set [1] came out at 27 µM. In data set [2], the “inhibition (INH)” value was found to be 10.8%. Also, the IC50 in data set [3] is more than 100 µg/mL.
`COc1cc(COc2ccc(C(=O)NN)cc2)cc(OC)c1OC`: in data set [1], the Activity came to 3515 µM. Also, the “inhibition (INH)” value in data set [2] came out at 37.2%. For the same compound, in data set [3], the half-maximal inhibitory concentration (IC50) was determined as 264 µg/mL (≈ 794 µM).
The corresponding values for `COc1cc(COc2ccc(C(=O)N/N=C/c3cc(Br)cc(Cl)c3O)cc2)cc(OC)c1OC` are 125 µM, 15.6% and more than 100 µg/mL.
The corresponding values for `COc1cc(COc2ccc(C(=O)N/N=C/c3cc(C(C)(C)C)c(O)c(C(C)(C)C)c3)cc2)cc(OC)c1OC` are 1096 µM, 75.3% and 62 µg/mL (≈ 113 µM).
On the same counts, the results for `COc1cc(/C=N/NC(=O)c2ccc(OCc3cc(OC)c(OC)c(OC)c3)cc2)cc(OC)c1O` are 2087 µM, 57.9% and 75 µg/mL (≈ 151 µM).
On to `CCOc1cc(/C=N/NC(=O)c2ccc(OCc3cc(OC)c(OC)c(OC)c3)cc2)ccc1O`, for which the Activity in data set [1] stood at 1844 µM. Besides, the “inhibition (INH)” value in data set [2] is listed as 53.3%. Further, the IC50 in data set [3] was determined as 106 µg/mL (≈ 221 µM).
On the same counts, the results for `COc1cc(COc2ccc(C(=O)N/N=C/c3ccc(OC)c(OC)c3OC)cc2)cc(OC)c1OC` are 1609 µM, 10.4% and more than 100 µg/mL.
The corresponding values for `COc1cc(/C=N/NC(=O)c2ccc(OCc3cc(OC)c(OC)c(OC)c3)cc2)cc(OC)c1OC` are 1365 µM, 10.4% and more than 100 µg/mL.
On the same counts, the results for `COc1cc(COc2ccc(C(=O)N/N=C/c3cccc(O)c3)cc2)cc(OC)c1OC` are 1819 µM, 9.3% and more than 100 µg/mL.
On to `COc1cc(COc2ccc(C(=O)N/N=C/c3ccccc3O)cc2)cc(OC)c1OC`, for which the Activity in data set [1] worked out at 26 µM. For the same compound, in data set [2], the “inhibition (INH)” value was 9.6%. In data set [3], the IC50 is more than 100 µg/mL.
For the compound `COc1cc(COc2ccc(C(=O)N/N=C/c3ccc(O)cc3)cc2)cc(OC)c1OC`, the Activity in data set [1] amounted to 3056 µM. Further, the “inhibition (INH)” value in data set [2] turned out to be 18.7%. Also, the concentration for half-maximal inhibition (IC50) in data set [3] was more than 100 µg/mL.
For `O=C1O[C@H]([C@@H](O)CO)C(O)=C1O` [ASCORBIC ACID], in data set [1], the Activity was 2562 µM. In addition, the “inhibition (INH)” value in data set [2] is 90.6%. In addition, the half-inhibitory concentration (IC50) in data set [3] is 40 µg/mL (≈ 227 µM).
The corresponding values for `Cc1cc(C(C)(C)C)c(O)c(C(C)(C)C)c1` [BUTYLATED HYDROXYTOLUENE] are 2837 µM, 54.8% and 99.7 µg/mL (≈ 452 µM).
